Key:
[1] = tested on: subjects; assay: Pittsburgh Sleep Quality Index study (PSQI, daily sleep diary); format: in vivo, human; conditions: 10 mg/day orally, 12 week study, twelve subjects
Method: Twelve subjects were treated with 10 mg/day of 3-(4-amino-1-oxo-1,3-dihydro-isoindol-2-yl)-piperidine-2,6-dione orally for 12 weeks. Subjects were seen every 2 weeks until study completion. Subjects were asked to keep a daily sleep diary asking how much interference with sleep (0-10 scale) was experienced. Patients were also asked to complete the Pittsburgh Sleep Quality Inventory (PSQI) at the start of the treatment and ever 4 weeks thereafter, Buysse, DJ et al., Journal of Psychiatric Research, 28 (2), 193-213, 1989.

[2] = cited from earlier work; for hygroscopicity: crystalline polymorphic form; for interconversion on heating (desolvation experiments): Form E: about 125° C. for about five minutes, Form B: 175° C. for about five minutes; for interconversion of polymorphic form: solvent system or relative humidity as stated

Structure (SMILES): Nc1cccc2c1CN(C1CCC(=O)NC1=O)C2=O (stereo not shown) [3-(4-amino-1-oxo-1,3-dihydro-isoindol-2-yl)-piperidine-2,6-dione]
- need for sleep medications [1]: significantly improved
- overall sleep quality [1]: significantly improved
- presence of daytime sleepiness [1]: significantly improved

Structure (SMILES): Nc1cccc2c1CN(C1CCC(=O)NC1=O)C2=O (stereo not shown) [Form A, 3-(4-amino-1-oxo-1,3 dihydro-isoindol-2-yl)-piperidene-2,6-dione]
- relative stability of polymorph ([2]; Form A: among anhydrous polymorphs, Form E: in aqueous solvent systems): most thermodynamically stable anhydrous polymorph
- hygroscopicity [2]: weakly or not hygroscopic

Structure (SMILES): Nc1cccc2c1CN(C1CCC(=O)NC1=O)C2=O (stereo not shown) [Form B, 3-(4-amino-1-oxo-1,3 dihydro-isoindol-2-yl)-piperidene-2,6-dione]
- interconversion on heating (desolvation experiments) [2]: can convert to Form F
- interconversion of polymorphic form [2]: converts to Form E in aqueous solvent systems

Structure (SMILES): Nc1cccc2c1CN(C1CCC(=O)NC1=O)C2=O (stereo not shown) [Form C, 3-(4-amino-1-oxo-1,3 dihydro-isoindol-2-yl)-piperidene-2,6-dione]
- hygroscopicity [2]: not hygroscopic below about 85% RH
- interconversion of polymorphic form [2]: can convert to Form B at higher relative humidities

Structure (SMILES): Nc1cccc2c1CN(C1CCC(=O)NC1=O)C2=O (stereo not shown) [Form D, 3-(4-amino-1-oxo-1,3 dihydro-isoindol-2-yl)-piperidene-2,6-dione]
- hygroscopicity [2]: either weakly or not hygroscopic
- interconversion of polymorphic form [2]: will typically convert to Form B when stressed at higher relative humidities

Structure (SMILES): Nc1cccc2c1CN(C1CCC(=O)NC1=O)C2=O (stereo not shown) [Form E, 3-(4-amino-1-oxo-1,3 dihydro-isoindol-2-yl)-piperidene-2,6-dione]
- interconversion on heating (desolvation experiments) [2]: can convert to Form B
- interconversion of polymorphic form [2]: can convert to Form C in an acetone solvent system and to Form G in a THF solvent system

Reference: patent publication US20050222209A1, “Methods and compositions for the treatment, prevention or management of dysfunctional sleep and dysfunctional sleep associated with disease” (priority 2004, published 2005)
